Measurements reported in patent US20190192532A1, “COMBINATION THERAPY OF BROMODOMAIN INHIBITORS AND CHECKPOINT BLOCKADE” (DANA-FARBER CANCER INSTITUTE, priority 2015, published 2019).

Legend:
[1] = tested on: PD-L1 (CD274); assay: PD-L1 expression on Eμ-Myc lymphoma cell lines by flow cytometry (MFI) after in vitro treatment; assay type: cell-based, murine; conditions: for expression of PD-L1 (CD274) on lymphoma cells (MFI): 24 hours in vitro, vs DMSO
Method: (§1) […] lymphoma cells (5×10^5) were incubated in the presence of JQ1, or DMSO, in 500 μL culture media in a 48 well plates (Corning, N.Y.) prior to analysis of PD-L1/L2 expression by flow cytometry. Human RPMI-8226 and L540 cells (5×10^5) were incubated in the presence of JQ1, or DMSO vehicle, in 500 μL culture media in a 48 well plates (Corning, N.Y.). Additionally RPMI-8226 cells were cultured with 100 ng/ML, IFN-γ as a single agent and in combination with JQ1, prior to analysis of PD-L1/L2 expression by flow cytometry.
Cell suspensions were washed once with ice-cold flow cytometry buffer (2% FCS and 0.02% NaN3 in PBS) and resuspended in anti-CD16/32 monoclonal antibody (clone 2.4G2) on ice for 30 minutes to block Fc receptors. Cell suspensions were washed once with ice-cold flow cytometry buffer and stained on ice for 30 minutes with the following conjugated antibodies: anti-mouse CD3 (pacific blue, 1:400, clone 17A2), anti-mouse CD4 (APC, 1:400, clone RM4-5), anti-mouse CD8 (PE-Cy7, 1:400, clone 53-6.7), anti-mouse PD-1 (FITC, 1:400, clone J43), anti-mouse PD-L1 (PE, 1:100, clone MIH5), anti-mouse PD-L2 (Biotin, 1:200, clone TY25), anti-human PD-L1 (PE, 1:200, clone 29E.2A3), or anti-human PD-L2 (Biotin, 1:200, clone 24F.10C12). Biotinylated antibodies were subsequently incubated with Streptavidin-PE-Cy7 (1:1000, catalogue number 25-4317-82) or Streptavidin-Pacific Blue (1:1000, catalogue number 48-4317-82) for 30 minutes on ice. Anti-Armenian Hamster IgG (FITC, 1:400, catalogue number 554011), Mouse IgG2aκ (PE, 1:100, clone RTK2758), Rat IgG2aκ (Biotin, 1:200, clone eBR2a), Mouse IgG2bκ (PE, 1:200, catalogue number 559529), and Mouse IgG2aκ (Biotin, 1:200, clone eBM2a) were used as isotype control antibodies, respectively. All antibodies were purchased from BioLegend (San Diego, Calif.), eBiosciences (San Diego, Calif.), or BD Bioscience (San Diego, Calif.). Cell suspensions were washed once with ice-cold flow cytometry buffer, resuspended in ice-cold flow cytometry buffer containing 7-AAD (1:1000, BD Bioscience) and analyzed by flow cytometry. Data was collected on a LSR Fortessa flow cytometer (BD Biosciences) and analyzed using FlowJo Software, version 10.0.7 (Tree Star).
As described in FIGS. 2A and 2B, JQ1 downregulates the expression of PD-L1 (CD274) on lymphoma cells as determined by flow cytometry analysis. Graphs showing the mean fluorescence intensity (MFI) of PD-L1 on Eμ-Myc lymphoma cell lines (FIG. 2A) ^#4242 and (FIG. 2B) ^#299 over-expressing Bcl-2 following 24 hours treatment in vitro with indicated concentrations of JQ1, or DMSO control are provided. Representative data are presented as mean MFI of cells cultured and analyzed in triplicate±S.E.M. (****p <0.0001, Student's t test).
PD-L1 downregulation following BET inhibition is time-dependent. Flow cytometry analysis of PD-L1 expression on Eμ-Myc lymphoma cell line ^#6066 following treatment in vitro with 500 nM JQ1 or DMSO control for indicated time points was performed.
Chemically distinct bromodomain inhibitors downregulate the expression of PD-L1 (CD274) on lymphoma cells, as shown by flow cytometry. […] Representative data are presented as mean MFI of cells cultured and analyzed in triplicate±S.E.M. (***p<0.001, Student's t test).

[2] = tested on: PD-L1; assay: Constitutive PD-L1 expression on Hodgkin lymphoma cell line L540 by flow cytometry; assay type: cell-based, human; conditions: L540 cells; 24 hours in vitro; indicated concentrations
Method: as §1
(§2) Cell suspensions were washed once with ice-cold flow cytometry buffer (2% FCS and 0.02% NaN3 in PBS) and resuspended in anti-CD16/32 monoclonal antibody (clone 2.4G2) on ice for 30 minutes to block Fc receptors. […] Cell suspensions were washed once with ice-cold flow cytometry buffer, resuspended in ice-cold flow cytometry buffer containing 7-AAD (1:1000, BD Bioscience) and analyzed by flow cytometry. Data was collected on a LSR Fortessa flow cytometer (BD Biosciences) and analyzed using FlowJo Software, version 10.0.7 (Tree Star). […]

[3] = tested on: Eμ-Myc lymphoma #299; assay: Survival of mice bearing Eμ-Myc lymphoma #299 treated with JQ1 plus anti-PD-1 or anti-4-1BB antibody; assay type: in vivo, mouse; conditions: JQ1 50 mg/kg i.p., 25 doses, combined with 100 μg anti-PD-1 (days 5, 10, 15, 20) or anti-4-1BB (days 5, 8, 11)
Method: (§3) Female C57BL/6 mice were purchased. C57BL/6.Rag2cγ^−/− mice were bred in house. C57BL/6.Rag1^−/− mice were purchased. For transplantation of Eμ-Myc lymphomas in vivo, cohorts of six- to eight-week-old syngeneic mice were inoculated via tail vein injection with 1-4×10^5 Eμ-Myc lymphoma cells. Mice were treated with 50 mg/kg JQ1, reconstituted in 1 part DMSO to 9 parts 10% (w/v) Hydroxypropyl-β-cyclodextrin (HPBCD; Cyclodextrin Technologies Development Inc., Gainesville, Fla.) In sterile water, or DMSO vehicle control. Mice were dosed once daily (5 days/week) via intra-peritoneal (i.p.) injection, commencing three days post-intravenous inoculation, for a total of 5 weeks therapy or until treatment failure. Tumor-bearing C57BL/6 mice were treated with the following monoclonal antibodies via i.p. injection: Anti-4-1-BB (Anti-CD137, 100 μg, 3H3; BioXCell), anti-PD-1 (100 μg, […]; BioXCell), or control immunoglobulin. (cIg, Rat IgG2a, 2A3, 100 μg; BioXCell). Anti-PD-1 mAb was dosed on days 5, 10, 15, and 20 post tumor transplant. Anti-4-1BB mAb was dosed on days 5, 8, and 11 post tumor transplant.
FIGS. 4A and 4B show Kaplan-Meier survival curves representing cohorts of […] (n=6 per treatment group) injected intravenously with 1-5×10^5 Eμ-Myc lymphoma ^#299 cells. […]

[4] = tested on: PD-L1; assay: PD-L1 expression on tumor cells of treated lymphoma-bearing mice by flow cytometry; assay type: in vivo, mouse
Method: as §2
(§4) A cohort of mice were injected intravenously with 1-5×10^5 Eμ-Myc lymphoma ^#4242 cells and left for 12 days to develop bulky nodal disease. Peripheral lymph nodes were harvested 16 hours following a single dose of JQ1 (50 mg/kg), or DMSO vehicle (n=3 per treatment group) and assessed by flow cytometry. […]
A cohort of mice were injected intravenously with 1-5×10^5 Eμ-Myc lymphoma ^#4242/Bcl-2 cells and treated daily with JQ1 (50 mg/kg), or DMSO vehicle (n=5 per treatment group). At day 18, peripheral blood was obtained and tumor cells were assessed by flow cytometry. […]

[5] = tested on: PD-L2 (CD273); assay: PD-L2 expression on tumor cells of treated lymphoma-bearing mice by flow cytometry; assay type: in vivo, mouse; conditions: single dose 50 mg/kg; peripheral lymph nodes 16 hours after dose; Eμ-Myc lymphoma #4242 in C57BL/6 mice
Method: Cell suspensions were washed once with ice-cold flow cytometry buffer (2% FCS and 0.02% NaN3 in PBS) and resuspended in anti-CD16/32 monoclonal antibody (clone 2.4G2) on ice for 30 minutes to block Fc receptors. Cell suspensions were washed once with ice-cold flow cytometry buffer and stained on ice for 30 minutes with the following conjugated antibodies: anti-mouse CD3 (pacific blue, 1:400, clone 17A2), anti-mouse CD4 (APC, 1:400, clone RM4-5), anti-mouse CD8 (PE-Cy7, 1:400, clone 53-6.7), anti-mouse PD-1 (FITC, 1:400, clone J43), anti-mouse PD-L1 (PE, 1:100, clone MIH5), anti-mouse PD-L2 (Biotin, 1:200, clone TY25), anti-human PD-L1 (PE, 1:200, clone 29E.2A3), or anti-human PD-L2 (Biotin, 1:200, clone 24F.10C12). […] Cell suspensions were washed once with ice-cold flow cytometry buffer, resuspended in ice-cold flow cytometry buffer containing 7-AAD (1:1000, BD Bioscience) and analyzed by flow cytometry. Data was collected on a LSR Fortessa flow cytometer (BD Biosciences) and analyzed using FlowJo Software, version 10.0.7 (Tree Star). […]
as §4

[6] = tested on: PD-L1; assay: IFN-γ-inducible PD-L1 expression on multiple myeloma cell line RPMI-8226 by flow cytometry; assay type: cell-based, human; conditions: RPMI-8226 cells; 500 nM with 100 ng/mL IFN-γ; 24 hours
Method: as §1
Cell suspensions were washed once with ice-cold flow cytometry buffer (2% FCS and 0.02% NaN3 in PBS) and resuspended in anti-CD16/32 monoclonal antibody (clone 2.4G2) on ice for 30 minutes to block Fc receptors. […] Cell suspensions were washed once with ice-cold flow cytometry buffer, resuspended in ice-cold flow cytometry buffer containing 7-AAD (1:1000, BD Bioscience) and analyzed by flow cytometry. Data was collected on a LSR Fortessa flow cytometer (BD Biosciences) and analyzed using FlowJo Software, version 10.0.7 (Tree Star).
JQ1 treatment downregulates the IFN-γ-inducible expression of PD-L1 on human myeloma cell lines. […] Representative data are presented as mean MFI of cells cultured and analyzed in triplicate=S.E.M. (*p<0.05, Student's t test).

[7] = tested on: PD-L1 transcript; assay: Quantitative real-time PCR of PD-L1 mRNA in Eμ-Myc lymphoma cell lines; assay type: cell-based, Mus musculus; conditions: 1000 nM; Eμ-Myc lymphoma #4242 and #299 over-expressing Bcl-2; indicated time points
Method: Eμ-Myc lymphomas cells were cultured in the presence of JQ1, or DMSO, as described above. RNA was extracted from cell pellets using the Nucleospine® RNA extraction kit (Macherey-Nagel, Bethlehem, Pa.) as per the manufacturer's instructions. cDNA was synthesized according to the manufacturer's instructions (Promega, Sydney, NSW). Quantitative PCR analysis of samples was performed on the 7900HT Fast Real-Time PCR System (Applied Biosystems, Mulgrave, VIC, Australia') with SYBR-green ROX mix (Agilent, Mulgrave, VIC, Australia). GAPDH was used as the murine control genes. Primer sequences were: Mus musculus PD-L1 F: […] (SEQ ID NO: 1) R: […] (SEQ ID NO: 2), Mus musculus GAPDH F: […] (SEQ ID NO: 3) R: […] (SEQ ID NO: 4).
Quantitative real-time-PCR (qPCR) analysis of PD-L1 mRNA levels in Eμ-Myc lymphoma cell lines (FIG. 2G) ^#4242 and (FIG. 2H) ^#299 over-expressing Bcl-2 following treatment with 1000 nM JQ1, or DMSO control, was performed at indicated time points. Transcript levels are presented as fold change compared to DMSO. Data are presented as mean fold-change from 3 separate experiments±S.E.M. (**p<0.01, ***p<0.001, ****p<0.0001, Student's t test).

[8] = tested on: Eμ-Myc lymphoma; assay: Survival of mice bearing transplanted Eμ-Myc lymphoma (Kaplan-Meier); assay type: in vivo, mouse; conditions: 50 mg/kg daily i.p.
Method: as §3
Cohorts of mice on a C57BL/6 background (n=10 per treatment group) were injected intravenously with 1-5×10^5 Eμ-Myc lymphoma cells three days prior to commencement of daily dosing with JQ1 (50 mg/kg), or DMSO vehicle., via i.p. injection. […]

[9] = Eμ-Myc lymphoma cell line #6066, 1 μM

## CCNC(=O)C[C@@H]1N=C(c2ccc(Cl)cc2)c2cc(OC)ccc2-n2c(C)nnc21 [IBET-762]
[1]; [9]
  expression of PD-L1 (CD274) on lymphoma cells (MFI): downregulate

## COc1cc2c(cc1-c1c(C)noc1C)ncc1[nH]c(=O)n([C@H](C)c3ccccn3)c12 [IBET-1.51]
[1]; [9]
  expression of PD-L1 (CD274) on lymphoma cells (MFI): downregulate

## Cc1sc2c(c1C)C(c1ccc(Cl)cc1)=N[C@@H](CC(=O)NCCCCNC(=O)COc1cccc3c1C(=O)N(C1CCC(=O)NC1=O)C3=O)c1nnc(C)n1-2 (some centres unmarked) [dBET1]
[1]; [9]
  expression of PD-L1 (CD274) on lymphoma cells (MFI): downregulate

## Cc1sc2c(c1C)C(c1ccc(Cl)cc1)=N[C@@H](CC(=O)OC(C)(C)C)c1nnc(C)n1-2 [JQ1]
[2]
  constitutive expression of PD-L1 (MFI): downregulates
[1]; Eμ-Myc lymphoma #4242 and #299 over-expressing Bcl-2, indicated concentrations
  expression of PD-L1 (CD274) on lymphoma cells (MFI): downregulates
[1]; Eμ-Myc lymphoma cell line #6066, 500 nM, indicated time points
  time course of PD-L1 downregulation: time-dependent
[1]; [9]
  expression of PD-L1 (CD274) on lymphoma cells (MFI): downregulate
[3]
  anti-tumor response (survival) in combination therapy: Promotes Curative Anti-Tumor Responses
[4]; 50 mg/kg daily, peripheral blood at day 18, Eμ-Myc lymphoma #4242/Bcl-2 in C57BL/6 mice
  PD-L1 expression on circulating tumor cells (MFI), chronic treatment: express lower levels of PD-L1
[4]; single dose 50 mg/kg, peripheral lymph nodes 16 hours after dose, Eμ-Myc lymphoma #4242 in C57BL/6 mice
  PD-L1 expression on live GFP-positive tumor cells (MFI), acute dose: rapidly downregulates
[5]
  PD-L2 expression on live GFP-positive tumor cells (MFI), acute dose: rapidly downregulates
[6]
  IFN-γ-inducible expression of PD-L1 (MFI): downregulates
[7]
  PD-L1 mRNA level (fold change compared to DMSO): rapidly downregulates
[8]; C57BL/6.Rag2cγ−/− and C57BL/6.Rag1−/− versus wild type C57BL/6
  survival of JQ1-treated immune deficient mice versus JQ1-treated wild type mice: succumbed to disease significantly earlier
[8]; immune competent (C57BL/6) and immune deficient (Rag2cγ−/−, Rag1−/−) mice, Eμ-Myc lymphoma #4242 and #299
  survival versus DMSO vehicle: significant survival advantage

## Cc1sc2c(c1C)C(c1ccc(Cl)cc1)=N[C@@H](CC(=O)Nc1ccc(O)cc1)c1nnc(C)n1-2 [Y803]
[1]; [9]
  expression of PD-L1 (CD274) on lymphoma cells (MFI): downregulate

## COc1cc(OC)c2c(=O)[nH]c(-c3cc(C)c(OCCO)c(C)c3)nc2c1 [RVX-208]
[1]; Eμ-Myc lymphoma cell line #6066, 10 μM
  expression of PD-L1 (CD274) on lymphoma cells (MFI): downregulate
